In patent US12150926B2 (SICHUAN JIUZHANG BIOLOGICAL SCIENCE AND TECHNOLOGY CO., LTD., priority 2018, dated 2024):

Columns and labels:
[1] = system: transplanted tumor in S180 sarcoma-bearing KM mice; experiment: In vivo inhibitory effect of chlorogenic acid on S180 sarcoma transplantation in KM mice (Experimental example 1); set-up: species or system mouse; key to growth volume of transplanted tumor: V = 0.52 × L × W² (long × shortest diameter²), in cm³; conditions: for growth volume of transplanted tumor: x ± s, n = 10; for inhibitory effect on the growth volume of transplanted tumors (in words): at different time points, compared with negative control group, chlorogenic acid systemic, local and systemic+local groups 30 mg/kg, ADM 2 mg/kg; for Tumor weight: at termination; for Tumor inhibiton rate: from tumor weight vs negative group
Method: (§1) KM mice, half male and half female, weighing 17-24 g.
S180 cell lines were mouse sarcoma cells, and suspendedly grew in DH medium, containing 20% calf serum, 1 mmol/L glutamine, 100 U·ml^−1 penicillin, and 100 μg·ml^−1 streptomycin, then cultured in 37° C. 5% CO2, saturated humidity incubator. The medium was changed every 2-3 days for passage.
S180 cells in the logarithmic growth phase were harvested, centrifuged at 1000 rpm for 5 min, washed twice, and the number of viable cells was counted by trypan blue staining. The cells were inoculated into the abdominal cavity of KM mice as soon as possible, and these mice were used as breeding mice. 2) In vivo experiment The ascites was extracted from 7 to 10 days, and the number of cells was adjusted to (about 1×10^6 cells) after dilution. The cell suspension in ascites was inoculated subcutaneously in the axillary of the left forelimb of the mice at 0.2 ml/animal.
(§2) Negative group: intraperitoneally injected, once a day, receiving an equal volume of normal saline. On the 5th day after inoculation, the tumor volume was measured (V=0.52×L (the long diameter of the transplanted tumor)×W^2 (the shortest diameter of the transplanted tumor)), and the mice were weighed every three days. The experiment was terminated when the average tumor size in the negative group was more than 1 g (the tumor volume was about […]). The mice were sacrificed by cervical vertebra luxation and weighed, the tumor was removed, and the tumor inhibitory rate was calculated. Tumor inhibitory rate %=[1−(average tumor weight in drug group/average tumor weight in negative group)]×100%.

[2] = system: transplanted tumor in S180 sarcoma-bearing KM mice; experiment: In vivo inhibitory effect of chlorogenic acid composition on S180 sarcoma transplantation in KM mice (Experimental example 2); set-up: species or system mouse; key to growth volume of transplanted tumor: tumor volume V=0.52×L×W² (long × shortest diameter²); conditions: for inhibitory effect on the growth volume of transplanted tumors (in words): at different time points, compared with negative control group, i.p. once a day, 30 mg/kg (ADM 2 mg/kg); for Tumor inhibition rate / growth volume of transplanted tumor / Tumor weight: intraperitoneally, once a day; for Tumor inhibition rate: from tumor weight vs negative group; for growth volume of transplanted tumor: x ± s, n = 10; for Tumor weight: at termination
Method: S180 sarcoma transplantation in KM mice
as §1
S180 cell lines were mouse sarcoma cells, and suspendedly grew in DH medium, containing 20% calf serum, 1 mmol/L glutamine, 100 U·ml^−1 penicillin, and 100 μg·ml^−1 streptomycin, then cultured in 37° C., 5% CO2, saturated humidity incubator. The medium was changed every 2-3 days for passage.
S180 cells in the logarithmic growth phase were harvested, centrifuged at 1000 rpm for 5 min, washed twice, and the number of viable cells was counted by trypan blue staining. The cells were inoculated into the abdominal cavity of KM mice as soon as possible, and these mice were used as breeding mice.
The ascites was extracted from 7 to 10 days, and the number of cells was adjusted to (about 1×10^6 cells) after dilution. The cell suspension in ascites was inoculated subcutaneously in the axillary of the left forelimb of the mice at 0.2 ml/animal. […] Coumaroylquinic acid group: intraperitoneally injected, once a day, at a dose of 30 mg·kg^−1.
Negative group: intraperitoneally injected, once a day, receiving an equal volume of normal saline.
as §2, with “On” for “Negative group: intraperitoneally injected, once a day, receiving an equal volume of normal saline. On”

[3] = systemic + local administration: i.v. once a day 30 mg/kg plus s.c. peri-lesion once every 5 days 30 mg/kg
[4] = time after inoculation 74, 30 mg/kg
[5] = time after inoculation 134 [sic], 30 mg/kg
[6] = time after inoculation printed 94, 30 mg/kg
[7] = time after inoculation printed 114, 30 mg/kg

## O=C(/C=C/c1ccc(O)c(O)c1)O[C@@H]1C[C@](O)(C(=O)O)C[C@@H](O)[C@H]1O [Chlorogenic acid]
[1]; 5 d after inoculation, local administration: subcutaneously into periphery of in situ lesion, once a day, 30 mg/kg
  growth volume of transplanted tumor: 0.152 ± 0.028
[1]; 5 d after inoculation, systemic administration: intravenously, once a day, 30 mg/kg
  growth volume of transplanted tumor: 0.141 ± 0.032
[1]; 7 d after inoculation, local administration: subcutaneously into periphery of in situ lesion, once a day, 30 mg/kg
  growth volume of transplanted tumor: 0.221 ± 0.047
[1]; 7 d after inoculation, systemic + local administration: i.v. once a day 30 mg/kg plus s.c. peri-lesion once every 5 days 30 mg/kg
  growth volume of transplanted tumor: 0.186 ± 0.065
[1]; 7 d after inoculation, systemic administration: intravenously, once a day, 30 mg/kg
  growth volume of transplanted tumor: 0.205 ± 0.061
[1]; 9 d after inoculation, local administration: subcutaneously into periphery of in situ lesion, once a day, 30 mg/kg
  growth volume of transplanted tumor: 0.311 ± 0.064
[1]; 9 d after inoculation, systemic + local administration: i.v. once a day 30 mg/kg plus s.c. peri-lesion once every 5 days 30 mg/kg
  growth volume of transplanted tumor: 0.243 ± 0.066
[1]; 9 d after inoculation, systemic administration: intravenously, once a day, 30 mg/kg
  growth volume of transplanted tumor: 0.289 ± 0.082
[1]; 11 d after inoculation, local administration: subcutaneously into periphery of in situ lesion, once a day, 30 mg/kg
  growth volume of transplanted tumor: 0.535 ± 0.078
[1]; 11 d after inoculation, systemic + local administration: i.v. once a day 30 mg/kg plus s.c. peri-lesion once every 5 days 30 mg/kg
  growth volume of transplanted tumor: 0.344 ± 0.127
[1]; 11 d after inoculation, systemic administration: intravenously, once a day, 30 mg/kg
  growth volume of transplanted tumor: 0.504 ± 0.158
[1]; 13 d after inoculation, local administration: subcutaneously into periphery of in situ lesion, once a day, 30 mg/kg
  growth volume of transplanted tumor: 0.651 ± 0.154
[1]; 13 d after inoculation, systemic + local administration: i.v. once a day 30 mg/kg plus s.c. peri-lesion once every 5 days 30 mg/kg
  growth volume of transplanted tumor: 0.446 ± 0.157
[1]; 13 d after inoculation, systemic administration: intravenously, once a day, 30 mg/kg
  growth volume of transplanted tumor: 0.593 ± 0.213
[1]
  inhibitory effect on the growth volume of transplanted tumors (in words): significant inhibitory effect
[1]; local administration: s.c. peri-lesion, once a day, 30 mg/kg
  Tumor weight: 1.324 ± 0.239 g
[1]; local administration: s.c. peri-lesion, once a day, 30 mg/kg, 30 mg/kg
  Tumor inhibiton rate: 41.36%
[1]; [3]
  Tumor weight: 0.957 ± 0.308 g
  Tumor inhibiton rate: 57.62%
[1]; systemic administration: intravenously, once a day, 30 mg/kg
  Tumor weight: 1.183 ± 0.215 g
[1]; systemic administration: intravenously, once a day, 30 mg/kg, 30 mg/kg
  Tumor inhibiton rate: 47.61%
[1]; systemic+local administration group
  inhibitory effect on the growth volume compared with the systemic administration group and the local administration group (in words): better inhibitory effect
[2]
  inhibitory effect on the growth volume of transplanted tumors (in words): significant inhibitory effect
[2]; 30 mg/kg, 30 mg/kg
  Tumor inhibition rate: 48.64%
[2]; [4]
  growth volume of transplanted tumor: 0.242 ± 0.053
[2]; [5]
  growth volume of transplanted tumor: 0.811 ± 0.142
[2]; [6]
  growth volume of transplanted tumor: 0.326 ± 0.071
[2]; [7]
  growth volume of transplanted tumor: 0.453 ± 0.093

## COc1cccc2c1C(=O)c1c(O)c3c(c(O)c1C2=O)C[C@@](O)(C(=O)CO)C[C@@H]3O[C@H]1C[C@H](N)[C@H](O)[C@H](C)O1 [ADM, adriamycin, reference compound]
[1]; 5 d after inoculation, intraperitoneally, once a day, 2 mg/kg
  growth volume of transplanted tumor: 0.096 ± 0.041
[1]; 9 d after inoculation, intraperitoneally, once a day, 2 mg/kg
  growth volume of transplanted tumor: 0.199 ± 0.080
[1]; 11 d after inoculation, intraperitoneally, once a day, 2 mg/kg
  growth volume of transplanted tumor: 0.333 ± 0.159
[1]; 13 d after inoculation, intraperitoneally, once a day, 2 mg/kg
  growth volume of transplanted tumor: 0.478 ± 0.241
[1]
  inhibitory effect on the growth volume of transplanted tumors (in words): significant inhibitory effect
[1]; intraperitoneally, once a day, 2 mg/kg, listed as Adriamycin (ADM), 2 mg/kg
  Tumor inhibiton rate: 56.95%
[2]
  inhibitory effect on the growth volume of transplanted tumors (in words): significant inhibitory effect
[2]; 2 mg/kg
  Tumor weight: 1.132 ± 0.552 g
[2]; 2 mg/kg, listed as Adriamycin (ADM), 2 mg/kg
  Tumor inhibition rate: 53.38%
[2]; time after inoculation 74, 2 mg/kg
  growth volume of transplanted tumor: 0.171 ± 0.082
[2]; time after inoculation 134 [sic], 2 mg/kg
  growth volume of transplanted tumor: 0.492 ± 0.204
[2]; time after inoculation printed 54, 2 mg/kg
  growth volume of transplanted tumor: 0.116 ± 0.073
[2]; time after inoculation printed 114, 2 mg/kg
  growth volume of transplanted tumor: 0.363 ± 0.128

## coumaroylquinic acid
[2]
  inhibitory effect on the growth volume of transplanted tumors (in words): didn't show inhibitory effect
[2]; 30 mg/kg
  Tumor weight: 2.303 ± 0.475 g
[2]; 30 mg/kg, 30 mg/kg
  Tumor inhibition rate: 5.15%
[2]; 30 mg/kg, listed as coumaroylquinic acid, 30 mg/kg
  Tumor inhibition rate: 5%
[2]; [4]
  growth volume of transplanted tumor: 0.364 ± 0.074
[2]; [5]
  growth volume of transplanted tumor: 1.106 ± 0.137
[2]; time after inoculation printed 54, 30 mg/kg
  growth volume of transplanted tumor: 0.209 ± 0.058
[2]; [6]
  growth volume of transplanted tumor: 0.573 ± 0.093
[2]; [7]
  growth volume of transplanted tumor: 0.898 ± 0.075
